# Data as given in patent publication US20250237649A1 (priority 2021, published 2025).
# Read-outs that look alike come from different tables or passages of the source. Residues, ends and D or L forms follow the SMILES beside them. *: point of attachment. Dabcyl = CN(C)c1ccc(N=Nc2ccc(C(=O)*)cc2)cc1; EDANS = O=S(=O)(O)c1cccc2c(NCCN*)cccc12; pNA = O=[N+]([O-])c1ccc(N*)cc1; Cbz = O=C(OCc1ccccc1)*
# How the values were obtained:
# Hip1 [1] = molecular target: T1, Hip1 (Mycobacterium tuberculosis, UniProt P9WHR3); assay: Km determination of Hip1 substrates (Michaelis-Menten); type: biochemical
# T1 sequence (P9WHR3 31-520): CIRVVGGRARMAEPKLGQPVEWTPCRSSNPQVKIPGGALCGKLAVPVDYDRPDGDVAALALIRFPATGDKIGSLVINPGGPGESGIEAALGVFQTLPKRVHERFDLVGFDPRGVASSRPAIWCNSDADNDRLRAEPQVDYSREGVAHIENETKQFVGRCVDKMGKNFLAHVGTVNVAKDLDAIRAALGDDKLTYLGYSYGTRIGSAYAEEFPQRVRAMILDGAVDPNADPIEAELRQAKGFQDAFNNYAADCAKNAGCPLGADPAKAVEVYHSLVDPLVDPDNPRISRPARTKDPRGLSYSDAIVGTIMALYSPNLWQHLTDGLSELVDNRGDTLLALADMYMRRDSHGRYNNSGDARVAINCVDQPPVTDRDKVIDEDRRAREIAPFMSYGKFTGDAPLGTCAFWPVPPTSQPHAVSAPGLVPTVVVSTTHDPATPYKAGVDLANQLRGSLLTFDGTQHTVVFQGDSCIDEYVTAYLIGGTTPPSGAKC
# Hip1 [2] = molecular target: T1, Hip1; assay: Inhibition of Hip1 (Ki determination); type: biochemical
# [3] = read-out: Km (fluorescent substrate)
Compound,Km (Hip1 [1]; [3]) [µM],further results
CC(C)C[C@H](NC(=O)[C@H](CCCCN)NC(=O)[C@H](Cc1ccccc1)NC(=O)OCc1ccccc1)C(=O)Nc1ccc([N+](=O)[O-])cc1 [Cbz-Phe-Lys-Leu-pNa] (Cbz-Phe-Lys-Leu-pNA),–,"Km (Hip1 [1]; three independent determinations averaged, read-out: Km (chromogenic substrate)): 0.421 µM"
"COC(=O)C(=O)[C@H](C[C@@H]1CCNC1=O)NC(=O)[C@H](CCCCN)NC(=O)[C@H](Cc1ccccc1)NC(=O)OCc1ccccc1 [Inhibitor Compound 2, Cbz-Phe-Lys-Glnlac-CO—CO2Me]",–,Ki (Hip1 [2]): 0.117 ± 0.015 nM
CC(C)C[C@H](NC(=O)CNC(=O)[C@H](CCCNC(=N)N)NC(=O)[C@H](CCCNC(=N)N)NC(=O)[C@H](C)NC(=O)[C@H](CCC(=O)O)NC(=O)c1ccc(N=Nc2ccc(N(C)C)cc2)cc1)C(=O)N[C@@H](CCC(=O)NCCNc1cccc2c(S(=O)(=O)O)cccc12)C(=O)N[C@@H](CCCNC(=N)N)C(=O)O [UFNG1] (Dabcyl-EARRGLE(EDANS)R-OH),17.5,–
"CC(C)C[C@H](NC(=O)CNC(=O)[C@H](CCC(N)=O)NC(=O)[C@H](CCCCN)NC(=O)[C@H](Cc1ccccc1)NC(=O)[C@H](CCC(=O)O)NC(=O)c1ccc(N=Nc2ccc(N(C)C)cc2)cc1)C(=O)N[C@@H](CCC(=O)NCCNc1cccc2c(S(=O)(=O)O)cccc12)C(=O)N[C@@H](CCCNC(=N)N)C(=O)O [UFNG2, Dabcyl-Glu-Phe-Lys-Gln-Gly-Leu-Glu-(EDANS)-Arg] (Dabcyl-EFKQGLE(EDANS)R-OH)",37.6,–
